Test results published in publication PMC7775144, “Enzyme Inhibitory Kinetics and Molecular Docking Studies of Halo-Substituted Mixed Ester/Amide-Based Derivatives as Jack Bean Urease Inhibitors” (BioMed Research International, 2020).
“Also recorded” adds a separate entry of the source. Where two headings read alike, the source gives them in different places.

Tests used:
jack bean urease [1] = molecular target: T1, jack bean urease (Canavalia ensiformis, UniProt P07374); experiment: biochemical; assay type: biochemical
T1 sequence (P07374 whole entry, looked up): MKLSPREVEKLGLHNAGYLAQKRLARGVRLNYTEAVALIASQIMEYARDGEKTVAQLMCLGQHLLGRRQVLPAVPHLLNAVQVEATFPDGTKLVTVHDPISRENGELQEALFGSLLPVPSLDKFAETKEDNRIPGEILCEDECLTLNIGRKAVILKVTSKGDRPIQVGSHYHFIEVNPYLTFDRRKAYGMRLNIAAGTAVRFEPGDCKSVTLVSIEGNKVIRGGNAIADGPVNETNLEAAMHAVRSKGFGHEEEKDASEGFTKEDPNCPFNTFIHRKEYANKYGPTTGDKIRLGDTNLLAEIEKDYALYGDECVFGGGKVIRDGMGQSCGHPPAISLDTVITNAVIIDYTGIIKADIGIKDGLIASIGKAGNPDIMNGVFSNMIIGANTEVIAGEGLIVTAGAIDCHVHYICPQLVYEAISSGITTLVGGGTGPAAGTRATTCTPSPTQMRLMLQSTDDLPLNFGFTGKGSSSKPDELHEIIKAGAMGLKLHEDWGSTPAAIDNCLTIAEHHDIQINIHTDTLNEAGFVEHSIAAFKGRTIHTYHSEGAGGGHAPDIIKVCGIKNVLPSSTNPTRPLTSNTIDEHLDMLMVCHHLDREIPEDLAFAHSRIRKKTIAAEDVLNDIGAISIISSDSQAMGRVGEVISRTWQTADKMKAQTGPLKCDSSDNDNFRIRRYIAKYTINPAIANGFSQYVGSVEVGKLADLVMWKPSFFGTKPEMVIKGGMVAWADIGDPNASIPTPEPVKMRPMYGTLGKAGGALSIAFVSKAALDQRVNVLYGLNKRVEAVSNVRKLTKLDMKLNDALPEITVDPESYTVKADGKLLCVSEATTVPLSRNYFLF
Protocol: The inhibitory effects on urease activity were done based on the Weatherburn method, using the indophenol scheme by determining the amount of ammonia produced. Briefly, 20 μL of jack bean urease enzyme (0.135 units) and 20 μL of the tested compounds were taken in 50 μL buffer and were incubated for 30 min. Temperature was kept at 37°C in a 96-well plate reader. The buffer solution was made by 0.01 molar K2HPO4/KH2PO4, 1 mM EDTA, 100 mM urea, and 0.01 M LiCl; pH was maintained at 7.0. Then, 50 μL of phenol reagent (1% w/v phenol and 0.005% w/v sodium nitroprusside) was added in 50 μL of alkali reagent in each well. The alkali reagent was prepared by 0.5% w/v NaOH and 0.1% NaOCl. Absorbance was measured at 625 nm using OPTIMax, a tunable microplate reader, after 10 min interval in a triplicate manner. The thiourea was used as a standard jack bean urease inhibitor. The data has been analyzed using software, GraphPad Prism, and statistical analysis (SD) was performed by using SigmaPlot software to get SD values of the bioassay results.

jack bean urease [2] = molecular target: T1, jack bean urease; experiment: Kinetic study of jack bean urease inhibition (Lineweaver-Burk plots); assay type: biochemical; set-up: 1/Vmax: unit not given here
Protocol: The derivative 4b was selected on the basis of its high activity for the determination of its kinetic mechanism on jack bean urease. The enzyme inhibition EI and enzyme-substrate inhibition ESI constants for compound 4b have been determined. The inhibitor concentration used in the kinetic experiments was 0.00, 0.0008, and 0.0016 μM while concentration of substrate was 0.0, 0.1, 0.2, 0.3, and 0.4 mM. The kinetic mechanism was determined by plotting of 1/V versus 1/[S] in the presence of inhibitor concentrations which gave a series of straight lines as shown in Figure 3. […] The EI dissociation constant (Ki) and ESI dissociation constant (Ki′) for compound 4b have also been determined from Lineweaver-Burk plots.

jack bean urease [3] = molecular target: T1, jack bean urease; conditions: jack bean urease inhibitors already reported; ref [35], [36]; cited from earlier work
[4] = n = 3, 30 min, 37°C, pH 7.0, 100 mM urea, read-out: Urease (jack bean) inhibition IC50 ± SD

## 2-((5-Isopropyl-2-methyl phenyl) Amino)-2-oxoethyl 2-Bromobenzoate [4i]
Jack bean urease [1]; [4]
  IC50: 0.0211 ± 0.0007 µM

## 2-((5-Isopropyl-2-methyl phenyl) Amino)-2-oxoethyl 3,4-Dichlorobenzoate [4k]
Jack bean urease [1]; [4]
  IC50: 0.0501 ± 0.0017 µM

## 2-((5-Isopropyl-2-methyl phenyl) Amino)-2-oxoethyl 3-Bromobenzoate [4j]
Jack bean urease [1]; [4]
  IC50: 0.0021 ± 0.0001 µM
Jack bean urease [1]; ratio of urease inhibitory activity, 4j versus 4k
  times more active than derivative 4k: 25

## CC(C)c1ccc(NC(=O)COC(=O)c2ccccc2Cl)cc1 [4a, 2-((4-Isopropylphenyl)amino)-2-oxoethyl 2-Chlorobenzoate]
Jack bean urease [1]
  IC50: 0.0571 ± 0.0019 µM
other
  melting point: 94 to 96 °C

## CC(C)c1ccc(NC(=O)COC(=O)c2cccc(Cl)c2)cc1 [4b, 2-((4-Isopropylphenyl)amino)-2-oxoethyl 3-Chlorobenzoate]
Jack bean urease [2]
  Ki: 0.0007 µM
Jack bean urease [2]; Lineweaver-Burk plots
  Inhibition type: mixed type of inhibitor; also recorded: mixed type of inhibition
Jack bean urease [2]; from Lineweaver-Burk plots
  Ki′ (ESI dissociation constant): 0.0018 µM
Jack bean urease [2]; inhibitor dose 0.0016 μM, substrate urea
  1/Vmax: 0.00088
Jack bean urease [1]
  IC50: 0.0016 ± 0.0002 µM
other
  melting point: 96 to 98 °C

## CC(C)c1ccc(NC(=O)COC(=O)c2ccc(Cl)c(Cl)c2)cc1 [4c, 2-((4-Isopropylphenyl)amino)-2-oxoethyl 3,4-Dichlorobenzoate]
Jack bean urease [1]
  IC50: 0.0182 ± 0.0006 µM
other
  melting point: 107 to 108 °C

## CC(C)c1ccc(NC(=O)COC(=O)c2ccccc2Br)cc1 [4d, 2-((4-Isopropylphenyl)amino)-2-oxoethyl 2-Bromobenzoate]
Jack bean urease [1]
  IC50: 0.0038 ± 0.0002 µM
other
  melting point: 89 to 90 °C

## CC(C)c1ccc(NC(=O)COC(=O)c2cccc(Br)c2)cc1 [4e, 2-((4-Isopropylphenyl)amino)-2-oxoethyl 3-Bromobenzoate]
Jack bean urease [1]
  IC50: 0.0627 ± 0.0021 µM
other
  melting point: 91 to 92 °C

## CC(C)c1ccc(NC(=O)COC(=O)c2ccccc2I)cc1 [4f, 2-((4-Isopropylphenyl)amino)-2-oxoethyl 2-Iodobenzoate]
Jack bean urease [1]
  IC50: 0.0312 ± 0.0011 µM
other
  melting point: 91 to 92 °C

## Cc1ccc(C(C)C)cc1NC(=O)COC(=O)c1ccccc1Cl [4g, 2-((5-Isopropyl-2-methylphenyl) Amino)-2-oxoethyl 2-Chloro Benzoate]
Jack bean urease [1]
  IC50: 0.0038 ± 0.0002 µM
other
  melting point: 115 to 116 °C

## Cc1ccc(C(C)C)cc1NC(=O)COC(=O)c1ccccc1I [4l, 2-((5-Isopropyl-2-methylphenyl) Amino)-2-oxoethyl 2-Iodobenzoate]
Jack bean urease [1]
  IC50: 0.0115 ± 0.0039 µM

## NC(N)=S [Thiourea, thiourea, reference compound]
Jack bean urease [1]; [4]
  IC50: 0.472 ± 0.135 µM

## Cc1ccc(C(=O)NC(=S)Nc2coc(=O)c3ccccc23)cc1 [compound 2]
Jack bean urease [3]
  IC50: 0.0065 µM
